Assay results published in patent US20220304958A1, “SMALL MOLECULE INHIBITORS OF A PROTEIN COMPLEX” (THE REGENTS OF THE UNIVERSITY OF CALIFORNIA, priority 2019, published 2022).

Tests used:
PARD3 binding to HEG1 = experiment: PARD3 pulldown assay with HEG1 matrix; parameters: species or system human (HUVEC lysates); settings: 35 μM compound, HUVEC lysates, HEG1 WT matrix
Experimental: PARD3 pulldown assay. Neutravidin agarose beads (Thermo Fisher) matrix with wild-type HEG1 cytoplasmic tail (1274-1381) and ΔYF (1274-1379) were previously described (5, 26). HUVEC were collected in cold lysis buffer (50 mM Tris-HCl, pH 7.4, 100 mM NaCl, 5 mM MgCl2, 0.5% NP-40) plus protease inhibitor cocktail (Roche). A total of 20 μl of HEG1 matrix was added to 600 μg of clarified lysates and incubated at 4° C. overnight while rotating. All conditions contained either vehicle DMSO, 35 μM HKi2 or 35 μM 2-hydroxy-1-naphthoic acid. After three washes with cold lysis buffer, beads were mixed with sample buffer and proteins were separated by SDS-PAGE. Bound PARD3 was detected by using polyclonal Rabbit anti-PARD3 (Millipore, 07-330) antibody.

PI3K/Akt signaling = PI3K/Akt signaling in hCMEC/D3 cells by Western blot; format: cell-based, human; settings: hCMEC/D3, 50 μM, 1 h
Experimental: Cell culture. hCMEC/D3 cells at passages 30-37 were grown to confluence on collagen-coated plates and cultured using in EGM-2 MV medium and supplemented with complements obtained from the manufacturer (Lonza) as previously reported (31). HUVEC (Lonza) at passages 4-7 were grown to confluence on gelatin-coated plates and maintained using complete EGM-2 media (Lonza). HKi2, 10 mM in DMSO, was maintained at room temperature for 30 min rotating before use. Cells were then treated with HKi2 at the concentrations and times indicated for each experiment. Vehicle cells were treated with the same volume of DMSO as used with HKi2. Cells were maintained at 37° C. in 95% air and 5% CO2. Western blotting and immunoprecipitation. […] Cell lysates were spun at 20,000×g for 15 minutes at 4° C. The PI3 Kinase was immunoprecipitated using the mouse monoclonal antibody as described in the manufacturer instructions and supernatants were stored at -80° C. Samples were resolved on 4-12% gradient gel and blotted using specific antibodies, as indicated. Band intensity was determined using a Li-Cor system and values obtained for phosphoproteins were normalized to the total protein in the same sample. Antibodies to phospho-Akt-Ser473 (clone: 193H12; rabbit mAb; #4058; 1:250), Akt (clone: 40D4; mouse mAb; #2920; 1:500), phospho-PI3 Kinase p85 […] (rabbit polyclonal; #4228; 1:500) were from Cell Signaling. […]

KLF4 and KLF2 mRNA [1] = experiment: KLF4 and KLF2 mRNA expression in hCMEC/D3 cells by qPCR; format: cell-based, human
Experimental: (§1) Cell culture. hCMEC/D3 cells at passages 30-37 were grown to confluence on collagen-coated plates and cultured using in EGM-2 MV medium and supplemented with complements obtained from the manufacturer (Lonza) as previously reported (31). HUVEC (Lonza) at passages 4-7 were grown to confluence on gelatin-coated plates and maintained using complete EGM-2 media (Lonza). HKi2, 10 mM in DMSO, was maintained at room temperature for 30 min rotating before use. Cells were then treated with HKi2 at the concentrations and times indicated for each experiment. Vehicle cells were treated with the same volume of DMSO as used with HKi2. Cells were maintained at 37° C. in 95% air and 5% CO2. RNA extraction and qRT-PCR. HUVECs total RNA were isolated using MagMAXTM-96 for Microarrays Total RNA Isolation Kit, according to the manufacturer's protocol (Thermo Fisher Scientific Cat #AM1839). qPCR analysis, single-stranded cDNA was produced from 10 ng RNA isolated from HUVECs using PrimeScriptTM RT Master Mix according to the manufacturer's protocol (Takara Cat. #R[…]). The levels of genes were analyzed using iTaqTM Universal SYBR Green (BioRad Cat #1725122) and thermal cycler (CFX96 Real-Time System; Bio-Rad) according to the manufacturer's protocol. Actin mRNA levels was used as internal control, and the 2^-ΔΔCT method was used for data analysis.

KLF4 and KLF2 mRNA [2] = experiment: KLF4 and KLF2 mRNA expression in HUVEC by qPCR; format: cell-based, human; settings: dose response, 24 hours
Experimental: as §1

HUVEC = experiment: Genome-wide RNA sequencing of HUVEC; format: cell-based, human; settings: 75 μM
Experimental: Cell culture. hCMEC/D3 cells at passages 30-37 were grown to confluence on collagen-coated plates and cultured using in EGM-2 MV medium and supplemented with complements obtained from the manufacturer (Lonza) as previously reported (31). HUVEC (Lonza) at passages 4-7 were grown to confluence on gelatin-coated plates and maintained using complete EGM-2 media (Lonza). HKi2, 10 mM in DMSO, was maintained at room temperature for 30 min rotating before use. Cells were then treated with HKi2 at the concentrations and times indicated for each experiment. Vehicle cells were treated with the same volume of DMSO as used with HKi2. Cells were maintained at 37° C. in 95% air and 5% CO2. Genome-wide RNA sequencing. The quantity (ND-1000 spectrophotometer; NanoDrop Technologies) and quality (Bioanalyzer; Agilent) of total RNA were analyzed. Only RNA with a RNA integrity number (RIN) greater than 8 RNA was used for library preparation. Libraries were generated using Illumina's TruSeq Stranded mRNA Sample Prep kit using 400 ng RNA. RNA libraries were multiplexed and sequenced with 100-bp […] single-end reads (SR100) to a depth of 30 million reads per sample on an Illumina HiSeq2500. Fastq files from RNA-seq experiments were mapped to the human genome (GRCh primary assembly release 96) using Hisat2 with default parameters. All bioinformatics analyses were conducted in R using the […] package RNAseq workflows. Differential gene expression analysis was conducted with EdgeR.

klf2a = klf2a reporter Tg(klf2a:H2B-EGFP) zebrafish embryos; format: in vivo; settings: 4 μM, 4 h, added at 26 hpf, imaged at 30 hpf
Description: Zebrafish. A previously reported transgenic zebrafish line Tg(klf2a:H2B-EGFP) was used to monitor the expression of klf2a (32, 33). […] At 30 hpf, these treated embryos were scanned for EGFP expression by Zeiss LSM 880 Airiscan.

[3] = Aqueous solubility in assay buffer; format: physicochemical
HEG1-KRIT1 interaction = target: T1, HEG1-KRIT1 interaction (Homo sapiens, UniProt O00522); experiment: Flow cytometry assay for the HEG1-KRIT1 FERM domain interaction (competition binding on HEG1 matrix beads); settings: inhibition of the HEG1-KRIT1 interaction, flow cytometry assay; read-out: IC50
T1 construct: His6-EGFP-KRIT1 (WT) FERM domain (417-736) and KRIT1 (L717,721A) mutant were cloned into pETM-11; His6 (N); made in house; host or cells: E. coli BL21 Star (DE3)
T1 sequence (O00522 417-736): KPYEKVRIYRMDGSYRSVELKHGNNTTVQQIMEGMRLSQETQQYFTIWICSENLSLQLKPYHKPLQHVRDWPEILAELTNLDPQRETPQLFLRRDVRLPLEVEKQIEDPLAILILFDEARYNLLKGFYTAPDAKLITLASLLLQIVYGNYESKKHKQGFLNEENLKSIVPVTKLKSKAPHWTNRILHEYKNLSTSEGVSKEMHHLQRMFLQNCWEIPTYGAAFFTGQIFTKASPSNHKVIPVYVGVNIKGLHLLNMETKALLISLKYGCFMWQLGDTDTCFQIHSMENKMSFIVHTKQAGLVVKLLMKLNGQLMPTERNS
Experimental: Bead Coupling. SPHERO Neutravidin Polystyrene Particles, […] (Spherotech) were washed twice with wash buffer (20 mM Tris, 150 mM NaCl. pH 7.4 containing 0.01% NP-40, and 1 mM EDTA). Prior to incubation with biotin-tagged HEG 1 cytoplasmic tail protein, an appropriate volume of bead slurry was passivated to inhibit non-specific binding by incubation for 30 minutes at room temperature in reaction buffer containing 0.1% BSA (20 mM Tris, 150 mM NaCl, pH 7.4 0.01% NP-40, 1 mM EDTA, 1 mM DTT, and 0.1% BSA). Passivated beads were collected by centrifugation, resuspended to 3,600 particles/μl in reaction buffer and biotinylated HEG1 tail was added to a final concentration of 150 nM and incubated overnight on a rotator at 4° C. The beads were washed three times by centrifugation with ice-cold reaction buffer to remove unbound HEG1 peptide. Beads were diluted such that a final concentration of 2000 beads/μL were available for addition to assay plates.
Flow cytometry assay. A final volume of 100 μl containing 140 nM EGFP-KRIT1 FERM domain, with 10% DMSO or 10% compounds in DMSO, was incubated for 15 minutes at room temperature on a rotator. 100 μl of beads were added to the mixture for a final volume of 200 μl at 1,000 particles/μl with 70 nM EGFP-KRIT1 and incubated for 15 minutes at room temperature on a rotator. The control beads were: without KRIT1 (minimum signal); with KRIT1 (maximum signal); and with KRIT1 plus 2 μM HEG1 7-mer (positive blocking control). The EGFP fluorescence was measured using a BD Accuri flow cytometer. For screening purposes, the final volume of the reaction was scaled down to 10 μl and samples were processed as previously described (27). For FIGS. 1D-1F, 2B, and 3E, a representative experiment is shown of at the least 3 independent repeats.
Assay plate assembly. Plate assays were performed in 384-well microtiter plates (Greiner Bio-one, #784101). Reaction buffer. HEG1-coupled beads, and EGFP-KRIT-FERM constructs were added using a MultiFlo™ Microplate Dispenser (BioTek Instruments, Inc.). Compounds were added to single-point assay plates pre-loaded with reaction buffer using a Biomek^NX liquid handler (BeckmanCoulter) equipped with a […] pintool (V & P Scientific, Inc.). Compound libraries were dispensed to a final concentration of 10 μM. An equal volume (10 nL) of DMSO was added to the vehicle control wells. Following the addition of library compounds, 5 μL of assay buffer was added and the plates were mixed before addition of 5 μL of the protein-coupled bead mixtures; Plates were protected from light and incubated on a rotator for 15 minutes at room temperature. Binding of EGFP-KRIT to HEG1 coupled beads was evaluated using an Accuri C6 flow cytometer.
Data Acquisition. Assay plates were sampled using the HyperCyt™ high throughput flow cytometry platform (Intellicyt; Albuquerque, N. Mex.). During sampling, the probe moves from well to well and samples 1-2 μL from each well pausing 0.4 sec in the air before sampling the next well. The resulting sample stream consisting of 384 separated samples is delivered to an Accuri C6 flow cytometer (BD Biosciences; San Jose, Calif.). Plate data are acquired as time-resolved files that are parsed by software-based well identification algorithms and merged with compound library files. Plate performance was validated using the Z-prime calculation (28).
Compounds that satisfied hit selection criteria in the primary screen were cherry-picked from compound storage plates and tested to confirm activity and determine potency. Dose response data points were fitted by Prism software (GraphPad Software Inc., San Diego, Calif.) using nonlinear least-squares regression in a sigmoidal dose-response model with variable slope, also known as the 4-parameter logistic equation.

log P = format: physicochemical; settings: method not stated (FIG. 2A)

O=Cc1c(O)ccc2ccccc12 [2-hydroxy-1-naphtaldehyde (Hki2), 2-hydroxy-1-naphthaldehyde]
PARD3 binding to HEG1 (PARD3 binding to HEG1): no effects | increase in Akt activation (pAkt-S473) (PI3K/Akt signaling; Western blot): 2.2 fold | increase in PI3K activity (PI3K/Akt signaling; phospho-p85): 2 fold | KLF4 and KLF2 mRNA levels (KLF4 and KLF2 mRNA [1]; hCMEC/D3, 25 μM, 12 h): upregulated | KLF2 upregulation, fold increase (KLF4 and KLF2 mRNA [1]; hCMEC/D3, 50 μM, 4 h): ~1.5 fold | KLF4 upregulation, fold increase (KLF4 and KLF2 mRNA [1]; hCMEC/D3, 50 μM, 4 h): ~3.5 fold | KLF2 mRNA levels, fold increase (KLF4 and KLF2 mRNA [1]; hCMEC/D3, 50 μM, 12 h): ~2.3 fold | KLF4 mRNA levels, fold increase (KLF4 and KLF2 mRNA [1]; hCMEC/D3, 50 μM, 12 h): ~6.5 fold | KLF4 levels, fold increase (KLF4 and KLF2 mRNA [1]; hCMEC/D3, 50 μM, 24 h): ~6 fold | KLF4 and KLF2 mRNA levels (KLF4 and KLF2 mRNA [2]): upregulated | VEGFA gene expression (HUVEC; 24 h, RNA-seq): upregulation | genes differentially expressed between treatment and vehicle control (HUVEC; 24 h, corrected P<0.05, ≥2.5-fold change): 457 genes | CCL2 (Monocyte chemoattractant protein) expression, ratio experimental/control FPKM (HUVEC; RNA-Seq, n=3): −7.95 | CXCR4 (C-X-C chemokine receptor type 4) expression, ratio experimental/control FPKM (HUVEC; RNA-Seq, n=3): −4.41 | KLF2 expression, ratio experimental/control FPKM (HUVEC; RNA-Seq, n=3): 3.07 | KLF4 expression, ratio experimental/control FPKM (HUVEC; RNA-Seq, n=3): 3.89 | THBD (Thrombomodulin) expression, ratio experimental/control FPKM (HUVEC; RNA-Seq, n=3): 8.34 | THBSI (Thrombospondin 1) expression, ratio experimental/control FPKM (HUVEC; RNA-Seq, n=3): −5.78 | nuclear EGFP (klf2a reporter) in arterial and venous endothelium (klf2a): increase | solubility in aqueous solution ([3]; qualitative, compared with HKi1): largely improved

CC(NC(=O)c1ccccc1N=Cc1c(O)ccc2ccccc12)c1ccccc1 (centres unmarked) [Sirtinol (Hki1), 2-[[(2-hydroxy-1-naphthalenyl)methylene]amino]-N-(1-phenylethyl)-benzamide, reference compound]
IC50 (HEG1-KRIT1 interaction): ~10 µM | logP (log P): 5.7 | solubility ([3]; assay buffer, aqueous buffer, in the buffer conditions of the assay): < 50 µM
